Experimental findings from patent US20230022724A1, “NOVEL IMIDAZOPYRAZINE DERIVATIVES” (Hoffmann-La Roche Inc., priority 2018, published 2023) are described below.

Counter-ions that a name gives are not always drawn.

For the first assay, the system named is Acinetobacter baumannii ATCC17978. Nature of the assay: Antimicrobial susceptibility testing: 90% growth inhibitory concentration (IC90) determination. It is filed as cell-based. The note with it: 90% growth inhibitory concentration, Acinetobacter baumannii ATCC17978, Iso-Sensitest broth, OD 600 nm over 16 h; read-out: ATCC17978 IC90. The method in brief: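 Compounds in twofold series (e.g. 50 to 0.097 μM final) in Iso-Sensitest broth, inoculated at ~5×10^5 CFU/ml, incubated at 35±2° C. OD600 was read every 20 minutes for 16 h. IC90 was derived from growth inhibition during logarithmic phase.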
One may read the IC90 as the point of the concentration-response curve where the effect stands at 90%. For “(R)-1-(2-chloro-4-((3-(3-fluoro-4-methoxyphenyl)imidazo[1,2-a]pyrazin-8-yl)amino)benzoyl)-N-(pyrrolidin-3-yl)piperidin-4-carboxamide hydrochlroide [Example 17]”, the IC90 came to 220 nM.

Still in this assay, the particulars now being: Acinetobacter baumannii, ATCC17978, 16 h, 90% growth inhibitory concentration, Acinetobacter baumannii ATCC17978, Iso-Sensitest broth, OD 600 nm over 16 h; read-out: ATCC17978 IC90.
`COc1ccc(-c2cnc3c(Nc4ccc(C(=O)N5CCC(CN)CC5)c(Cl)c4)nccn23)c(F)c1F` [Example 8, (4-(aminomethyl)piperidin-1-yl)(2-chloro-4-((3-(2,3-difluoro-4-methoxyphenyl)imidazo[1,2-a]pyrazin-8-yl)amino)phenyl)methanone]: the concentration for an effect of 90% (IC90) was found to be 170 nM.

In the case of `COc1ccc(-c2cnc3c(Nc4ccc(C(=O)N5CCC(C(=O)NC[C@H](O)[C@@H](O)[C@H](O)[C@H](O)CO)CC5)c(Cl)c4)nccn23)cc1F` [Example 107, 1-(2-chloro-4-((3-(3-fluoro-4-methoxyphenyl)imidazo[1,2-a]pyrazin-8-yl)amino)benzoyl)-N-((2S,3R,4R,5R)-2,3,4,5,6-pentahydroxyhexyl)piperidine-4-carboxamide], the IC90 came out at 260 nM.

In the case of `O=C(c1ccc(Nc2nccn3c(-c4ccc(OC(F)F)cc4)cnc23)cc1Cl)N1CCC(N2CCNCC2)CC1` [Example 67, [2-chloro-4-[[3-[4-(difluoromethoxy)phenyl]imidazo [1,2-a]pyrazin-8-yl]amino]phenyl]-(4-piperazin-1-ylpiperidin-1-yl)methanone;hydrochloride], the IC90 is 170 nM.

In the case of `NCC1CCN(C(=O)c2ccc(Nc3nccn4c(-c5ccc(OC(F)F)cc5)cnc34)cc2Br)CC1` [Example 5, (4-(aminomethyl)piperidin-1-yl)(2-bromo-4-((3-(4-(difluoromethoxy)phenyl)imidazo[1,2-a]pyrazin-8-yl)amino)phenyl)methanone hydrochloride], the IC90 came to 140 nM.

For `COc1ccc(-c2cnc3c(Nc4ccc(C(=O)N5CCCCC5)cc4)nccn23)cc1Cl` [Example 65, [4-[[3-(3-chloro-4-methoxyphenyl)imidazo[1,2-a]pyrazin-8-yl]amino]phenyl]-piperidin-1-ylmethanone], the IC90 stood at 1500 nM.

For `N#CCOc1ccc(-c2cnc3c(Nc4ccc(C(=O)N5CCC(c6cnc[nH]6)CC5)c(Cl)c4)nccn23)c(F)c1F` [Example 11, 2-[4-[8-[3-chloro-4-[4-(1H-imidazol-5-yl)piperidine-1-carbonyl]anilino]imidazo[1,2-a]pyrazin-3-yl]-2,3-difluoro-phenoxy]acetontrile; 2,2,2-trifluoroacetic acid], the IC90 was 140 nM.

As for `COc1ccc(-c2cnc3c(Nc4ccc(C(=O)N5CCN(C)CC5)cc4)nccn23)cc1` [Example 64, [4-[[3-(4-methoxyphenyl)imidazo[1,2-a]pyrazin-8-yl]amino]phenyl]-(4-methylpiperazin-1-yl)methanone], the IC90 is 1400 nM.

Consider `N#CCOc1ccc(-c2cnc3c(Nc4ccc(C(=O)N5CCN(CCN6CCC[C@H]6C(=O)O)CC5)c(Cl)c4)nccn23)c(F)c1F` [Example 104, (2-(4-(2-chloro-4-((3-(4-(cyanomethoxy)-2,3-difluorophenyl)imidazo[1,2-a]pyrazin-8-yl)amino)benzoyl)piperazin-1-yl)ethyl)proline trifluoroacetate], for which the concentration for an effect of 90% (IC90) stood at 630 nM.

Take `COc1ccc(-c2cnc3c(Nc4ccc(C(=O)N5CCN(CCN(C)C)CC5)c(Cl)c4)nccn23)cc1F` [Example 55, [2-chloro-4-[[3-(3-fluoro-4-methoxyphenyl)imidazo[1,2-a]pyrazin-8-yl]amino]phenyl]-[4-[2-(dimethylamino)ethyl]piperazin-1-yl]methanone;hydrochloride]: the IC90 is 140 nM.

`COc1ccc(-c2cnc3c(Nc4ccc(C(=O)N5CCN(CCNC6CC6)CC5)c(Cl)c4)nccn23)cc1F` [Example 58, [2-chloro-4-[[3-(3-fluoro-4-methoxyphenyl)imidazo[1,2-a]pyrazin-8-yl]amino]phenyl]-[4-[2-(cyclopropylamino)ethyl]piperazin-1-yl]methanone]: the IC90 amounted to 330 nM.

`Cn1cnnc1C1CCN(C(=O)c2ccc(Nc3nccn4c(-c5ccc(OCC#N)c(F)c5F)cnc34)cc2Cl)CC1` [Example 23, 2-[4-[8-[3-chloro-4-[4-(4-methyl-1,2,4-triazol-3-yl)piperidine-1-carbonyl]anilino]imidazo[1,2-a]pyrazin-3-yl]-2,3-difluoro-phenoxy]acetonitrile; 2,2,2-trifluoroacetic acid]: the IC90 was 160 nM.

`N#Cc1cc(Nc2nccn3c(-c4ccc(OC(F)F)cc4)cnc23)ccc1C(=O)N1CCC(CN)CC1` [Example 27, 2-(4-(aminomethyl)piperidine-1-carbonyl)-5-((3-(4-(difluoromethoxy)phenyl)imidazo[1,2-a]pyrazin-8-yl)amino)benzonitrile]: the IC90 was 1500 nM.

Regarding `COc1ccc(-c2cnc3c(Nc4ccc(C(=O)N5CCN(CCNCCO)CC5)c(Cl)c4)nccn23)cc1F` [Example 43, (2-Chloro-4-((3-(3-fluoro-4-methoxyphenyl)imidazo[1,2-a]pyrazin-8-yl)amino)phenyl)(4-(2-((2-hydroxyethyl)amino)ethyl)piperazin-1-yl)methanone], the IC90 came out at 140 nM.

In the case of `N#CCOc1ccc(-c2cnc3c(Nc4ccc(C(=O)N5CCC(CN)CC5)c(Cl)c4)nccn23)c(F)c1F` [Example 12, 2-(4-(8-((4-(4-(aminomethyl)piperidine-1-carbonyl)-3-chlorophenyl)amino)imidazo[1,2-a]pyrazin-3-yl)-2,3-difluorophenoxy)acetonitrile], the IC90 turned out to be 49 nM.

For `N#CCOc1ccc(-c2cnc3c(Nc4ccc(C(=O)N5CCOCC5)c(Cl)c4)nccn23)c(F)c1F` [Example 79, 2-[4-[8-[3-chloro-4-(morpholine-4-carbonyl)anilino]imidazo[1,2-a]pyrazin-3-yl]-2,3-difluorophenoxy]acetonitrile], the IC90 was 160 nM.

Staying with this assay, now noted: Acinetobacter baumannii, ATCC17978, 16 h, read-out: ATCC17978 IC90.
Take `N#CCOc1ccc(-c2cnc3c(Nc4ccc(C(=O)N5CCN(CCN6CCC(CO)C6)CC5)c(Cl)c4)nccn23)c(F)c1F` (stereo not shown) [Example 90, 2-[4-[8-[3-chloro-4-[4-[2-[3-(hydroxymethyl)pyrrolidin-1-yl]ethyl]piperazine-1-carbonyl]anilino]imidazo[1,2-a]pyrazin-3-yl]-2,3-difluorophenoxy]acetonitrile; 2,2,2-trifluoroacetic acid]: the 90% effect concentration (IC90) was 43 nM.

As for `CNCC(=O)N1CCN(C(=O)c2ccc(Nc3nccn4c(-c5ccc(OC)c(F)c5F)cnc34)cc2Cl)CC1` [Example 53, 1-[4-[2-chloro-4-[[3-(2,3-difluoro-4-methoxyphenyl)imidazo[1,2-a]pyrazin-8-yl]amino]benzoyl]piperazin-1-yl]-2-(methylamino)ethanone; hydrochloride], the IC90 was 56 nM.

As to `CNCCNC(=O)C1CCN(C(=O)c2ccc(Nc3nccn4c(-c5ccc(OC)c(F)c5)cnc34)cc2Br)CC1` [Example 44, 1-(2-bromo-4-((3-(3-fluoro-4-methoxyphenyl)imidazo[1,2-a]pyrazin-8-yl)amino)benzoyl)-N-(2-(methylamino)ethyl)piperidine-4-carboxamide; Formic Acid], the 90% effect concentration (IC90) came to 300 nM.

For the molecule `COc1ccc(-c2cnc3c(Nc4ccc(C(=O)N5CCN(C6CNC6)CC5)c(Cl)c4)nccn23)cc1F` [Example 73, [4-(azetidin-3-yl)piperazin-1-yl]-[2-chloro-4-[[3-(3-fluoro-4-methoxyphenyl)imidazo[1,2-a]pyrazin-8-yl]amino]phenyl]methanone; hydrochloride], the IC90 worked out at 530 nM.

Consider `CC(C#N)Oc1ccc(-c2cnc3c(Nc4ccc(C(=O)N5CCN(CCN(C)C)CC5)c(Cl)c4)nccn23)c(F)c1F` (stereo not shown) [Example 41, 2-[4-[8-[3-chloro-4-[4-[2-(dimethylamino)ethyl]piperazine-1-carbonyl]anilino]imi-dazo[1,2-a]pyrazin-3-yl]-2,3-difluoro-phenoxy]propanenitrile formate], for which the IC90 came out at 130 nM.

Consider `CN(C)C1CN(CCN2CCN(C(=O)c3ccc(Nc4nccn5c(-c6ccc(OCC#N)c(F)c6F)cnc45)cc3Cl)CC2)C1` [Example 102, 2-[4-[8-[3-chloro-4-[4-[2-[3-(dimethylamino)azetidin-1-yl]ethyl]piperazine-1-carbonyl]anilino]imidazo[1,2-a]pyrazin-3-yl]-2,3-difluorophenoxy]acetonitrile; 2,2,2-trifluoroacetic acid], for which the IC90 turned out to be 170 nM.

For `N#CCOc1ccc(-c2cnc3c(Nc4ccc(C(=O)N5CCC(C(=O)N6CCN[C@@H](C(=O)O)C6)CC5)c(Cl)c4)nccn23)c(F)c1F` [Example 46, (R)-4-(1-(2-chloro-4-((3-(4-(cyanomethoxy)-2,3-difluorophenyl)imidazo[1,2-a]pyrazin-8-yl)amino)benzoyl)piperidine-4-carbonyl)piperazine-2-carboxylic Acid; Formic Acid], the IC90 amounted to 890 nM.

Take `N#CCOc1ccc(-c2cnc3c(Nc4ccc(C(=O)N5CCN(C(=O)[C@@H]6C[C@@H](O)CN6)CC5)c(Cl)c4)nccn23)c(F)c1F` [Example 34, 2-[4-[8-[3-chloro-4-[4-[(2S,4R)-4-hydroxypyrrolidine-2-carbonyl]piperazine-1-carbonyl]anilino]imidazo [1,2-a]pyrazin-3-yl]-2,3-difluroo-phenoxy]acetonitrile formate]: the IC90 was found to be 31 nM.

`N#CCOc1ccc(-c2cnc3c(Nc4ccc(C(=O)N5CCN(CCN6CC(O)C6)CC5)c(Cl)c4)nccn23)c(F)c1F` [Example 96, 2-[4-[8-[3-chloro-4-[4-[2-(3-hydroxyazetidin-1-yl)ethyl]piperazine-1-carbonyl]anilino]imidazo[1,2-a]pyrazin-3-yl]-2,3-difluorophenoxy]acetonitrile; 2,2,2-trifluoroacetic acid]: the IC90 came out at 73 nM.
